Assay results from PMC3701070 (PLoS ONE, 2013).
Like-named read-outs stand apart in the source and are kept apart here.

Assays:
[1] = system: pMEK and pERK in HCT-116 (wild-type BRAF, mutant KRAS) cells; assay: Western blot, paradoxical MAPK activation in HCT-116 cells; format: cell-based, human; conditions: 100 nM or 300 nM, 1 h
Procedure: (§1) Cells were lysed in 25 mM Tris-HCl pH 7.5, 2 mM EDTA, 2 mM EGTA, 1% Triton X-100, 0.1% SDS, 50 mM sodium-β-glycerophosphate, 2 mM Na3VO4, 12.5 mM sodium pyrophosphate, 2× Complete EDTA-free mini protease inhibitor tablets (Roche), 2× phosphatase inhibitor cocktails I and II (Sigma-Aldrich). Protein concentrations were determined by Bio-Rad DC™ or dye-based protein assays and lysates were resolved by SDS-PAGE (Invitrogen NuPAGE®) and transferred to PVDF membranes. Membranes were blocked with Odyssey® (LI-COR Biosciences) blocking buffer and incubated with primary antibodies overnight at 4°C. Blots were washed with PBS containing 0.1% Tween-20, incubated with secondary antibodies, and washed again prior to signal detection on a LI-COR Odyssey® reader.
Lysates were immunoblotted for total ERK (tERK) and dual-phosphorylated ERK (ppERK) (B).

ALK5 = ALK5 (Homo sapiens, UniProt P36897); assay: ALK5 cell-based assay
Chain of ALK5 (P36897 34-503, species assumed): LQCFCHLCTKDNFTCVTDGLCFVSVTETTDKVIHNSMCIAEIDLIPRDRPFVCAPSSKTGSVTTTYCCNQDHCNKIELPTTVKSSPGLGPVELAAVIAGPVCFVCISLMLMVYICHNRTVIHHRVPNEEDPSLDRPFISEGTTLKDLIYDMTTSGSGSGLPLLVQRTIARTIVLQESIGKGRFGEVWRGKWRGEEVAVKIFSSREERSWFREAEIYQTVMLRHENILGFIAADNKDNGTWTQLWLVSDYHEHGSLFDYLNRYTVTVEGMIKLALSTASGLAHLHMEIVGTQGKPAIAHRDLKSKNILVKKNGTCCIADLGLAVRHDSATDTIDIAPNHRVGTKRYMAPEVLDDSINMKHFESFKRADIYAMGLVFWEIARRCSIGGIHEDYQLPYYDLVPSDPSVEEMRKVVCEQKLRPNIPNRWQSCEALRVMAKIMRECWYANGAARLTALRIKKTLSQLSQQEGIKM

BRK (h) = target: T1, BRK (h) (Homo sapiens, UniProt Q13882); assay: Kinase panel (Millipore) enzyme activity; format: biochemical
T1 construct: purchased Millipore
T1 sequence (Q13882 whole entry): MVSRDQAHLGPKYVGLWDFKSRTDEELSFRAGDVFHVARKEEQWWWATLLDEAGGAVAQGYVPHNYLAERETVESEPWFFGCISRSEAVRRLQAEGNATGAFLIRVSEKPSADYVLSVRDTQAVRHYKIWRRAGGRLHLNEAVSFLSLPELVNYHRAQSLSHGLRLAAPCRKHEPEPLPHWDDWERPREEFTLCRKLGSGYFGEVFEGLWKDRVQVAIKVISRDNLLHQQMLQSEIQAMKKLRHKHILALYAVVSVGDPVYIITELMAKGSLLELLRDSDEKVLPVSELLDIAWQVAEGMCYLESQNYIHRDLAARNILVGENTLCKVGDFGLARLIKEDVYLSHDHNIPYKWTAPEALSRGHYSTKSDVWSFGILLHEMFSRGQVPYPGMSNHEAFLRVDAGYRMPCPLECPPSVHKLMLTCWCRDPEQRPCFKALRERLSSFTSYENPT

[2] = system: A375P tumors (BRAF^V600E)
Text: Cells were implanted subcutaneously in female CD1 nu/nu mice and grown to form tumors. […] Tumor volumes were estimated twice weekly from two-dimensional caliper measurements using the prolate ellipsoid equation [drawing 1] , where v = volume (mm^3), l = length (mm), and w = width (mm), and reported as means for n of 7 or 8 mice per group. Tumor growth inhibition represents the percentage volume differential between treated and control tumors at the time when vehicle-treated tumors exceeded a volume of 1 000 mm^3. Partial regression is defined as a 50% decrease from an individual tumor's starting volume for at least 1 week (three consecutive measurements). […] All efforts were made to minimize suffering and mice were euthanized by carbon dioxide asphyxiation if at least one death occurred per treatment group, if an animal appeared moribund or in distress, or if the tumor became ulcerated.
Treatment continued until the mean tumor volume of each group reached 1 200 mm^3 or one death occurred. Mean tumor volumes are plotted with their standard error mean and complete (CR) or partial (PR) regressions are indicated for each group of n = 8 mice after 14 days of treatment.

NEK11 (h) = target: T2, NEK11 (h) (Homo sapiens, UniProt Q8NG66); assay: Kinase panel (Millipore) enzyme activity; format: biochemical
T2 construct: purchased Millipore
T2 sequence (Q8NG66 whole entry): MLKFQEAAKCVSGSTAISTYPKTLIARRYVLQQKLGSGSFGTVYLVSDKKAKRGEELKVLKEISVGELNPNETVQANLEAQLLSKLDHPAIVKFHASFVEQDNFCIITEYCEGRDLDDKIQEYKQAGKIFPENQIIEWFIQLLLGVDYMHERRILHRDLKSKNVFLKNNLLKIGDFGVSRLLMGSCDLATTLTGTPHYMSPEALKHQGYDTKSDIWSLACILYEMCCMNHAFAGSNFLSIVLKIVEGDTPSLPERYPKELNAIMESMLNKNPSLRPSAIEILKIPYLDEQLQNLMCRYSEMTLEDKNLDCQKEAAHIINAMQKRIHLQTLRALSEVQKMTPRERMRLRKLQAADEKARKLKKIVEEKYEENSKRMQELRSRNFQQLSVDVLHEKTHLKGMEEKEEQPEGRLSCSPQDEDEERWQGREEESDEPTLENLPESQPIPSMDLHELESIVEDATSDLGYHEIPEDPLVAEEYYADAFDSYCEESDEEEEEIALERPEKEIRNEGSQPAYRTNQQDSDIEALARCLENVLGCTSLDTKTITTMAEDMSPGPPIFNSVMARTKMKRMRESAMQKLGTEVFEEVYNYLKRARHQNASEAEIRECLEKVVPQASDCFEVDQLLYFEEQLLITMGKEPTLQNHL

[3] = system: Human Foreskin Fibroblasts (HFF, wild-type BRAF); assay: Cell cycle analysis; format: cell-based; conditions: concentrations up to 10 µM
Procedure: Cells were permeabilized, DNA was stained with propidium iodide, and samples were read on a BD LSRII flow cytometer. Data were analyzed using the cell cycle platform of FlowJo v6.1.1 software.
Cell cycle phases are shown in stacked format as a percentage of the total population. […] (PPTX) Click here for additional data file.

SHP-77 = assay: Cell growth assay; format: cell-based; conditions: Homo sapiens, SHP77, 72 h; SHP-77, RAF WT, KRAS(G12V), 3-day; read-out: gIC50
In short: (§2)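 Baseline plates measured at t = 0; treated plates measured at 72 h via CellTiter-Glo. Values = IC50 for growth inhibition.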

NCI-H292 = assay: Cell growth assay; format: cell-based; conditions: Homo sapiens, 72 h; NCI-H292, RAF WT, RAS WT, 3-day; read-out: gIC50
In short: as §2

MC-IXC = assay: Cell growth assay; format: cell-based; conditions: Homo sapiens, 72 h, RAF WT, RAS WT, 3-day, read-out: gIC50
In short: as §2

H4 = assay: Cell growth assay; format: cell-based; conditions: Homo sapiens, 72 h; H4, RAF WT, RAS WT, 3-day; read-out: gIC50
In short: as §2

[4] = system: pERK in A375P (BRAF^V600E) cells; assay: Western blot, pERK in A375P cells; format: cell-based; conditions: Homo sapiens, 8 nM, 1 h
Procedure: as §1
(§3) siRNA complexes were prepared per the manufacturer's instructions using Dharmacon RNAi duplex (Thermo Fisher Scientific), Lipofectamine™ RNAiMAX™ (Invitrogen), and Opti-MEM® (Gibco) and allowed to form at room temperature for at least 40 min. Volumes of 1 mL of RNAi complex were added to each well of a plate with 150 000 cells in complete medium (no antibiotic) and incubated at 37°C, 5% CO2 for the indicated times.
(§4) Lysates were immunoblotted for the proteins indicated.

[5] = system: pMEK in A375P (BRAF^V600E) cells; assay: Western blot, pMEK in A375P cells; format: cell-based; conditions: Homo sapiens, 8 nM, 1 h
Procedure: as §1, §3, §4

[6] = system: Colo 205 tumor xenografts (BRAF^V600E); assay: Colo 205 tumor xenograft growth; format: in vivo, mice
Text: The 14-day period of dosing is indicated by the shaded gray bar.

[7] = system: A375P tumor xenografts (BRAF^V600E); assay: Pharmacodynamic markers in A375P tumor xenografts; format: in vivo; conditions: A375P xenograft, mice, 30 mg/kg oral once daily
Procedure: Tumors were harvested, homogenized (BD Bioscience Medimachine) in 1 mL each of ice-cold Western Blot Analysis buffer containing 4 mM sodium pyrophosphate, then centrifuged (18 000×g, 15 min, 4°C), and flash-frozen. Samples were analyzed by duplex ELISA (MesoScale Discovery) for total and phospho ERK1/2 per the manufacturer’s instructions using an MSD SI6000 reader.
A375P tumors were harvested at 6 h after the sixth daily dose with compound or vehicle, cut into samples of ∼100 mm^3 in volume, fixed in 10% neutral-buffered formalin (NBF, VWR) for 24 h, and transferred into 70% ethanol prior to paraffin embedding. Paraffin-embedded blocks were sectioned (4 µm to 5 µm) and immunostained for ppERK, Ki67, and p27^Kip1 by Mosaic Laboratories (Lake Forest, CA).
Phospho-ERK (pERK) is normalized to total ERK (tERK). Tumors harvested 6h post-last 6th dose were stained for Ki67, p27, and ppERK by immunohistochemistry and compared with pre-treatment controls (B). Data are representative of n = 3 studies and percent changes were calculated from the ratio of positively stained cells following drug treatment to those following vehicle control treatment, each as a percentage of the total cell population.

LIMK1 (h) = target: T3, LIMK1 (h) (Homo sapiens, UniProt P53667); assay: Kinase panel (Millipore) enzyme activity; format: biochemical
T3 construct: purchased Millipore
T3 sequence (P53667 whole entry): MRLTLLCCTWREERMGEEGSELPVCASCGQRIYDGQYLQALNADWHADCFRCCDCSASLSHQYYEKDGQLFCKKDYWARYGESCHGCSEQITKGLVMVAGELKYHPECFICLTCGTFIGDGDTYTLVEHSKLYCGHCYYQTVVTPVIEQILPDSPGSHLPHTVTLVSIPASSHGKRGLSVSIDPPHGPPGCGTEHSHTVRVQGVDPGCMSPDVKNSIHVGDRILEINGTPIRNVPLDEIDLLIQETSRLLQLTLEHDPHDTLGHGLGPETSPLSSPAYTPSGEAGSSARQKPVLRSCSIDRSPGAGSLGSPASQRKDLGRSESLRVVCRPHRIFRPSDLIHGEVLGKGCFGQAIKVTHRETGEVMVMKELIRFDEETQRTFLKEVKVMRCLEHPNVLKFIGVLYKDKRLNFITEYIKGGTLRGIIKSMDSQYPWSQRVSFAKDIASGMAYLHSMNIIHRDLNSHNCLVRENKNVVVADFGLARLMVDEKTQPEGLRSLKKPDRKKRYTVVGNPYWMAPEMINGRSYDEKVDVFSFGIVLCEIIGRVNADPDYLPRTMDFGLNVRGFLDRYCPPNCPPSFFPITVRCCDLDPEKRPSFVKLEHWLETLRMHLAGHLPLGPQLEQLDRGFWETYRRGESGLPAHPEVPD
Text: (§5) (PDF) Click here for additional data file.

195 tumor cell lines = assay: Cell growth assay, summary over 195 tumor cell lines; format: cell-based; conditions: Homo sapiens, read-out: gIC50
Procedure: (§6) Growth was measured with CellTiter-Glo® (Promega) reagent per the manufacturer’s protocol, using a PerkinElmer EnVision™ reader at t = 0 and 72 h. IC50 values for cell growth inhibition (gIC50) were determined.
The functional selectivity of dabrafenib was evaluated by measuring the growth of a range of human tumor cell lines of different genetic mutation status.
as §5

HCT-116 = assay: Cell growth assay; format: cell-based, human; conditions: HCT-116, RAF WT, KRAS(G13D), 3-day
Procedure: as §6, §5

ALK5 (h) = ALK5 (h) (Homo sapiens, UniProt P36897); assay: ALK5 binding assay
Chain of ALK5 (h) (P36897 34-503): as the sequence (P36897 34-503, species assumed) above

With `CC(C)(C)c1nc(-c2cccc(NS(=O)(=O)c3c(F)cccc3F)c2F)c(-c2ccnc(N)n2)s1` [dabrafenib] the “pMEK and pERK compared with DMSO control” value [1] was “increased pMEK and pERK”, the “ALK5 inhibition in cell-based assay” value (ALK5) was “absence of ALK5 inhibition” and the IC50 (BRK (h)) was 79 nM. The “period for which tumor growth inhibition was observed” value ([2]; 30 mg/kg for 33 days) was 14 days, the “period for which tumor growth inhibition was observed” value ([2]; 300 mg/kg for 43 days) was 20 days and the IC50 (NEK11 (h)) was 20 nM. The “effect on cell cycle” value [3] was “unaffected”, the IC50 (SHP-77) was > 10000 nM and the IC50 (NCI-H292) was > 10000 nM. For the same compound, the IC50 (MC-IXC) was > 10000 nM, the IC50 (H4) was 619 nM and the inhibition at 0.008 µM [4] was > 90%. For the same compound, the inhibition at 0.008 µM [5] was > 90%, the partial regressions ([6]; Colo 205 xenograft, 100 mg/kg oral q.d. x 14) was 4 of 8 mice and the “inhibition of tumor growth” value ([6]; Colo 205 xenograft, 3, 10, 30 and 100 mg/kg oral q.d. x 14) was “dose-dependent inhibition of tumor growth”. The “downregulation of Ki67 in tumors, immunohistochemistry” value ([7]; 6 h after sixth dose) was 28%, the “downregulation of pERK (ppERK) in tumors, immunohistochemistry” value ([7]; 6 h after sixth dose) was 89% and the “upregulation of p27 in tumors, immunohistochemistry” value ([7]; 6 h after sixth dose) was 54%. The “time post-dosing for which reduction of tumor pERK is sustained” value ([7]; after 7 and 14 days of dosing) was “up to 18 h”, the IC50 (LIMK1 (h)) was 15 nM and the IC50 (195 tumor cell lines; 133 (88%) of the 152 RAS/RAF wild-type and all 18 mutant RAS cell lines) was > 10000 nM. The IC50 (195 tumor cell lines; A673, 3 of the BRAF^V600E cell lines (GCT, RKO, A673)) was > 2000 nM, the IC50 (195 tumor cell lines; sixteen (80%) of the 20 cell lines encoding BRAF^V600E) was < 200 nM and the gIC50 (HCT-116) was “insensitive”. For the same compound, the IC50 (HCT-116; Homo sapiens, 72 h, read-out: gIC50) was > 10000 nM and the IC50 (ALK5 (h)) was 11 nM.
